Results taken from US9499492B2, “4-(ortho)-fluorophenyl-5-fluoropyrimidin-2-yl amines containing a sulfoximine group” (BAYER PHARMA AKTIENGESELLSCHAFT, priority 2012, dated 2016).
Like-named read-outs stand apart in the source and are kept apart here.

Columns and labels:
[1] = molecular target: human carbonic anhydrase-2 (Homo sapiens (Human), UniProt P00918); experiment: Carbonic anhydrase assay, carbonic anhydrase-2 (Method 4); format: biochemical; conditions: read-out: Inhibition of Carbonic anhydrase-2 IC50
Method: (§1) 4. Carbonic Anhydrase Assay
The principle of the assay is based on the hydrolysis of 4-nitrophenyl acetate by carbonic anhydrases (Pocker & Stone, Biochemistry, 1967, 6, 668), with subsequent photometric determination of the dye product 4-nitrophenolate at 400 nm by means of a 96-channel spectral photometer.
(§2) 2 μL of the test compounds, dissolved in DMSO (100-fold final concentration), in a concentration range of 0.03-10 μmol/L (final), was pipetted as quadruplicates into the wells of a 96-hole microtiter plate. Wells that contained the solvent without test compounds were used as reference values (1. Wells without carbonic anhydrase for correction of the non-enzymatic hydrolysis of the substrate, and 2. Wells with carbonic anhydrase for determining the activity of the non-inhibited enzyme).
(§3) 188 μL of assay buffer (10 mmol/L of Tris/HCl, pH 7.4, 80 mmol/L of NaCl), with or without 3 units/well of carbonic anhydrase-1 [=human carbonic anhydrase-1 (Sigma, #C4396)] in order to determine carbonic anhydrase-1 inhibition or 3 units/well of carbonic anhydrase-2 [=human carbonic anhydrase-2 (Sigma, #C6165)] for measuring carbonic anhydrase-2 inhibition, was pipetted into the wells of the microtiter plate.

[2] = molecular target: human carbonic anhydrase-1 (Homo sapiens (Human), UniProt P00915); experiment: Carbonic anhydrase assay, carbonic anhydrase-1 (Method 4); format: biochemical; conditions: read-out: Inhibition of Carbonic anhydrase-1 IC50
Method: as §1, §2, §3

[3] = In vivo pharmacokinetics in rats (Method 6); conditions: male, Wistar, plasma; rat, iv dosing; read-out: t1/2: terminal half-life from in vivo rat study (converted)
Method: 6. In Vivo Pharmacokinetics in Rats
For in vivo pharmacokinetic experiments test compounds were administered to male Wistar rats intravenously at doses of 0.3 to 1 mg/kg formulated as solutions using either rat plasma or solubilizers such as PEG400 in well-tolerated amounts.
For pharmacokinetics after intravenous administration test compounds were given as i.v. bolus and blood samples were taken at 2 min, 8 min, 15 min, 30 min, 45 min, 1 h, 2 h, 4 h, 6 h, 8 h and 24 h after dosing. […] Blood was collected into Lithium-Heparin tubes (Monovetten®, Sarstedt) and centrifuged for 15 min at 3000 rpm. An aliquot of 100 μL from the supernatant (plasma) was taken and precipitated by addition of 400 μL icecold acetonitril and frozen at −20° C. over night. Samples were subsequently thawed and centrifuged at 3000 rpm, 4° C. for 20 minutes. Aliquots of the supernatants were taken for analytical testing using an Agilent 1200 HPLC-system with LCMS/MS detection. PK parameters were calculated by non-compartmental analysis using a PK calculation software.
PK parameters derived from concentration-time profiles after i.v.: CLplasma: Total plasma clearance of test compound (in L/kg/h); CLblood: Total blood clearance of test compound: CLplasma*Cp/Cb (in L/kg/h) with Cp/Cb being the ratio of concentrations in plasma and blood, AUCnorm: Area under the concentration-time curve from t=0 h to infinity (extrapolated) divided by the administered dose (in kg*h/L); t½: terminal half-life (in h).

[4] = test system: MOLM-13 human acute myeloid leukemia cells; experiment: Proliferation assay, MOLM-13 (Cell Titre-Glo, Method 3); format: cell-based; conditions: MOLM-13, 72-hour exposure, read-out: Inhibition of MOLM-13 cell proliferation IC50
Method: Non-adherent MOLM-13 human acute myeloid leukemia cells (DSMZ ACC 554) were seeded at a density of 5,000 cells/well in a 96-well multititer plate in 100 μL of growth medium supplemented 10% fetal calf serum. After 24 hours, cell viability of one plate (zero-point plate) was determined with the Cell Titre-Glo Luminescent Cell Viability Assay (Promega), while 50 μL of test compound containing medium was added to the wells of the other plates (final concentrations in the range of 0.001-10 μM and DMSO controls; the final concentration of the solvent dimethyl sulfoxide was 0.5%). Cell viability was assessed after 72-hour exposure with the Cell Titre-Glo Luminescent Cell Viability Assay (Promega).

Chain of human carbonic anhydrase-1 (P00915 whole entry): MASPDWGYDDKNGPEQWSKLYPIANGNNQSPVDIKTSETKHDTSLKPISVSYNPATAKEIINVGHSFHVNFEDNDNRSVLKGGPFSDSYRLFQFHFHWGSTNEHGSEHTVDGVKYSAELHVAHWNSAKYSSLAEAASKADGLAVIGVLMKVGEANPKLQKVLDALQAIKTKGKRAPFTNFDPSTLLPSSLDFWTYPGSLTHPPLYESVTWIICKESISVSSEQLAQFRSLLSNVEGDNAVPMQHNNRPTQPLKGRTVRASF

With CS(=O)(Cc1cc(Nc2ncc(F)c(-c3ccc(F)cc3F)n2)cc(C(F)(F)F)c1)=NC#N (racemic) [Example 1, (rac)-{[3-{[4-(2,4-Difluorophenyl)-5-fluoropyrimidin-2-yl]amino}-5-(trifluoromethyl)benzyl](methyl)oxido-λ^6-sulfanylidene}cyanamide] the IC50 [1] was greater than 10 µM and the IC50 [2] was greater than 10 µM.
For CS(=N)(=O)Cc1cc(Nc2ncc(F)c(-c3ccc(F)cc3F)n2)cc(C(F)(F)F)c1 (racemic) [Example 4, (rac)-4-(2,4-Difluorophenyl)-5-fluoro-N-{3-[(S-methylsulfonimidoyl)methyl]-5-(trifluoromethyl)phenyl}pyrimidin-2-amine], the IC50 [1] was greater than 10 µM, the IC50 [2] was greater than 10 µM and the half-life [3] was 4.5 h.
For CS(=O)(Cc1cc(Nc2ncc(F)c(-c3ccc(F)cc3F)n2)cc(C(F)(F)F)c1)=NC(N)=O (racemic) [Example 7, (rac)-1-{[3-{[4-(2,4-Difluorophenyl)-5-fluoropyrimidin-2-yl]amino}-5-(trifluoromethyl)benzyl](methyl)oxido-λ^6-sulfanylidene}urea], the IC50 [1] was greater than 10 µM and the IC50 [2] was greater than 10 µM.
With CS(=N)(=O)Cc1cc(Cl)cc(Nc2ncc(F)c(-c3ccc(F)cc3F)n2)c1 (racemic) [Example 15, (rac)-N-{3-chloro-5-[(S-methylsulfonimidoyl)methyl]phenyl}-4-(2,4-difluorophenyl)-5-fluoropyrimidin-2-amine] the IC50 [1] was greater than 10 µM and the IC50 [2] was greater than 10 µM.
With CS(=O)(Cc1cc(Nc2ncc(F)c(-c3ccc(F)cc3F)n2)cc(S(F)(F)(F)(F)F)c1)=NC#N (racemic) [Example 28, (rac)-{[3-{[4-(2,4-Difluorophenyl)-5-fluoropyrimidin-2-yl]amino}-5-(pentafluoro-λ^6-sulfanyl)benzyl](methyl)oxido-λ^6-sulfanylidene}cyanamide] the IC50 ([4]; Homo sapiens, MOLM-13, 72 h) was 0.145 µM.
Compound CS(=O)(Cc1cc(Nc2ncc(F)c(-c3ccc(F)cc3F)n2)cc(C(F)(F)F)c1)=NC#N (single isomer, unassigned) [Example 2, {[3-{[4-(2,4-Difluorophenyl)-5-fluoropyrimidin-2-yl]amino}-5-(trifluoromethyl)benzyl](methyl)oxido-λ^6-sulfanylidene}cyanamide] has a half-life [3] of 4.3 h.
Work on CS(=N)(=O)Cc1cc(Nc2ncc(F)c(-c3ccc(F)cc3F)n2)cc(S(F)(F)(F)(F)F)c1 (single isomer, unassigned) [Example 32, 4-(2,4-Difluorophenyl)-5-fluoro-N-{3-[(S-methylsulfonimidoyl)methyl]-5-(pentafluoro-λ^6-sulfanyl)phenyl}pyrimidin-2-amine] yielded an IC50 [4] of 0.165 µM and a half-life [3] of 15 h.
Work on CS(=O)(Cc1cc(Nc2ncc(F)c(-c3ccc(F)cc3F)n2)cc(S(F)(F)(F)(F)F)c1)=NC(N)=O (single isomer, unassigned) [Example 33, 1-{[3-{[4-(2,4-Difluorophenyl)-5-fluoropyrimidin-2-yl]amino}-5-(pentafluoro-λ^6-sulfanyl)benzyl](methyl)oxido-λ^6-sulfanylidene}urea] yielded an IC50 [4] of 0.2 µM.
